System: 991263-137-R1-J2-PDC complex spheroid viability
Test: Anticancer human tumor 991263-137-R1-J2-PDC patient-derived colon adenocarcinoma cell line growth inhibition [POLQ]
Details: for IC50: curve of first compound; for viability, T/C: stronger effect = lower value
Outline: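 Growth inhibition in 3D: complex spheroids (tumor PDC, HUVEC, MSC) treated with POLQ inhibitor combinations; where Cmax unknown, highest tested concentration 10 microM, except SN-38 at 1 microM.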
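Further: spheroids exposed to compounds for 7 days before readout.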
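Wherever viability, T/C is given: 100% = DMSO vehicle control viability.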

CCc1cc2c(N3CCc4c(cc(Cn5ccnc5)cc4-c4cn(C)nc4C(F)(F)F)C3=O)cc(C)nc2c(OC)n1 + Nc1ccc(C#CCN(C(=O)Cc2ncc(C(F)(F)F)cc2C(F)(F)F)c2ccc(F)cc2)nn1
IC50 (second compound 0.0316 µM): > 10 µM | IC50 (second compound 0.1 µM): > 10 µM | IC50 (second compound 0.316 µM): > 10 µM | IC50 (second compound 1 µM): > 10 µM | IC50 (second compound 3.16 µM): > 10 µM | IC50 (second compound 10 µM): > 10 µM | viability, T/C (second compound 0.0316 µM, first compound 0.0316 µM): 99.3% | viability, T/C (second compound 0.0316 µM, first compound 0.1 µM): 104% | viability, T/C (second compound 0.0316 µM, first compound 0.316 µM): 107% | viability, T/C (second compound 0.0316 µM, first compound 1 µM): 98.7% | viability, T/C (second compound 0.0316 µM, first compound 3.16 µM): 89.8% | viability, T/C (second compound 0.0316 µM, first compound 10 µM): 92.2% | viability, T/C (second compound 0.1 µM, first compound 0.0316 µM): 105% | viability, T/C (second compound 0.1 µM, first compound 0.1 µM): 99.9% | viability, T/C (second compound 0.1 µM, first compound 0.316 µM): 102% | viability, T/C (second compound 0.1 µM, first compound 1 µM): 98.2% | viability, T/C (second compound 0.1 µM, first compound 3.16 µM): 109% | viability, T/C (second compound 0.1 µM, first compound 10 µM): 96.9% | viability, T/C (second compound 0.316 µM, first compound 0.0316 µM): 102% | viability, T/C (second compound 0.316 µM, first compound 0.1 µM): 112% | viability, T/C (second compound 0.316 µM, first compound 0.316 µM): 103% | viability, T/C (second compound 0.316 µM, first compound 1 µM): 103% | viability, T/C (second compound 0.316 µM, first compound 3.16 µM): 87.7% | viability, T/C (second compound 0.316 µM, first compound 10 µM): 104% | viability, T/C (second compound 1 µM, first compound 0.0316 µM): 107% | viability, T/C (second compound 1 µM, first compound 0.1 µM): 107% | viability, T/C (second compound 1 µM, first compound 0.316 µM): 93.2% | viability, T/C (second compound 1 µM, first compound 1 µM): 90.5% | viability, T/C (second compound 1 µM, first compound 3.16 µM): 104% | viability, T/C (second compound 1 µM, first compound 10 µM): 93% | viability, T/C (second compound 3.16 µM, first compound 0.0316 µM): 94.6% | viability, T/C (second compound 3.16 µM, first compound 0.1 µM): 99.9% | viability, T/C (second compound 3.16 µM, first compound 0.316 µM): 98.6% | viability, T/C (second compound 3.16 µM, first compound 1 µM): 96.6% | viability, T/C (second compound 3.16 µM, first compound 3.16 µM): 95.6% | viability, T/C (second compound 3.16 µM, first compound 10 µM): 83.9% | viability, T/C (second compound 10 µM, first compound 0.0316 µM): 94.6% | viability, T/C (second compound 10 µM, first compound 0.1 µM): 103% | viability, T/C (second compound 10 µM, first compound 0.316 µM): 98.2% | viability, T/C (second compound 10 µM, first compound 1 µM): 92.7% | viability, T/C (second compound 10 µM, first compound 3.16 µM): 94.9% | viability, T/C (second compound 10 µM, first compound 10 µM): 93.2%
